Measurements taken from publication PMC9730446 (Science translational medicine, 2022).

Columns and labels:
[1] = Cytotoxicity in CD34+ cells from healthy donors; conditions: human, CD34+ cells from cord blood of healthy donors
in vivo = conditions: NSG, mouse, plasma, ip, 10 mg/kg
KOPT-K1 cells [2] = assay: In vitro drug wash-out assay, cell growth; type: cell-based; conditions: 100nM for 18 hours, then drug-free media
KOPT-K1 cells [3] = type: cell-based
[4] = Cytotoxicity in peripheral blood mononuclear cells; conditions: human, peripheral blood mononuclear cells (PBMCs)

AUC (in vivo)	half-life (in vivo)	SMILES	CC50 at 72 h [1]	time post drug removal at which cells began to recover (KOPT-K1 cells [2])	effect of lenalidomide on LC50 (KOPT-K1 cells [3])	effect of CRBN deletion (CRBN^KO) on cell sensitivity (KOPT-K1 cells [3]; CRBN^KO vs CRBN^WT KOPT-K1, 72 hours)	CC50 at 72 h [4]	effect on T-ALL survival and growth (KOPT-K1 cells [3]; single agent)
1400 ng·h/mL	55.2 min	Cc1nc(Nc2ncc(C(=O)Nc3c(C)cccc3Cl)s2)cc(N2CCN(CCO)CC2)n1 [dasatinib]	92.9 nM	96 h	did not alter	did not alter cell sensitivity	2.81 nM	
		Nc1cccc2c1CN(C1CCC(=O)NC1=O)C2=O (centres unmarked) [lenalidomide]						no effect
